Test [1] concerns AAD-12 (v1) transformed T0 tobacco events (pDAS1580). Description: Postemergence herbicide tolerance in T0 tobacco. It counts as in vivo, Nicotiana tabacum. To be noted: 560 g ae/ha fluroxypyr. An excerpt: T0 plants from each of the 19 events were challenged with a wide range of 2,4-D, triclopyr, or fluroxypyr sprayed on plants that were 3-4 inches tall. Spray applications were made as previously described using a track sprayer at a spray volume of 187 L/ha. 2,4-D dimethylamine salt (Riverside Corp) was applied at 0, 140, 560, or 2240 g ae/ha to representative clones from each event mixed in deionized water. Fluroxypyr was likewise applied at 35, 140, or 560 g ac/ha. Triclopyr was applied at 70, 280, or 1120 g ae/ha. Each treatment was replicated 1-3 times. Injury ratings were recorded 3 and 14 DAT. Every event tested was more tolerant to 2,4-D than the untransformed control line KY160. In several events, some initial auxinic herbicide-related epinasty occurred at doses of 560 g ae/ha 2,4-D or less. Some events were uninjured at 2,4-D applied at 2240 g ac/ha (equivalent to 4× field rate). On the whole, AAD-12 (v1) events were more sensitive to fluroxypyr, followed by triclopyr, and least affected by 2,4-D. The quality of the events with respect to magnitude of resistance was discerned using T0 plant responses to 560 g ae/ha fluroxypyr. Events were categorized into “low” (>40% injury 14 DAT), “medium” (20-40% injury), “high” (<20% injury). Some events were inconsistent in response among replicates and were deemed “variable.”

The subject of test [2] is AAD-12 transformed T0 corn events. Description: Postemergence herbicide tolerance in T0 corn. It counts as in vivo, Zea mays. As to conditions: 2240 g ae/ha 2,4-D. As for the experimental part:
Four T0 events were allowed to acclimate in the greenhouse and were grown until 2-4 new, normal looking leaves had emerged from the whorl (i.e., plants had transitioned from tissue culture to greenhouse growing conditions). Plants were grown at 27° C. under 16 hour light:8 hour dark conditions in the greenhouse. Plants were then treated with commercial formulations of either Pursuit® (imazethapyr) or 2,4-D Amine 4. […] Herbicide applications were made with a track sprayer at a spray volume of 187 L/ha, 50-cm spray height. Plants were sprayed with either a lethal dose of imazethapyr (70 g ae/ha) or a rate of 2,4-D DMA salt capable of significant injury to untransformed corn lines (2240 g ac/ha). A lethal dose is defined as the rate that causes >95% injury to the Hi-II inbred. Hi-II is the genetic background of the transformants of the present invention.

For test [3], the system named is PHL tobacco suspension co-cultivated with Agrobacterium carrying pDAB724. Briefly: Tobacco cell transformation with AAD-12 (v1) and 2,4-D selection. The test is classed as cell-based. As to the method:
For tobacco transformation experiment, there were 11 treatments altogether: a control set plated on LS-BY2C+dichlorprop medium, and 10 sets of LSBY2C+dichlorprop+2,4-D at varying concentration levels (1, 2, 3, 5, 8, 10, 12, 15, 18, 20 mg/L). There were four replications per treatment. The plasmid DNA vector used was pDAB724, and the vector used for transformation was EHA101S strain of Agrobacterium tumefaciens. Four ml of PHL suspension at 0.6 OD^660 were mixed with 100 ul of Agrobacterium (either EHA101 or LBA4404 strains) suspension at 1.0 OD^660 in a sterile Petri plate and were mixed thoroughly and co-cultivated together in a non-shake condition at a dark growth chamber for 3 days at 25° C. After the co-cultivation period 1.5 ml of the Agro-tobacco suspension mixture was plated to the 11 set of plates above. […] Again, there were four replicates per treatment, as well as a positive and negative control. All media contain 500 mg/L Carbenicillin (C) to control to contain Agrobacterium growth in the selection media.
The plasmid used in these experiments is pDAB724 and it has PAT selectable marker as well. So, control transformation experiments were initiated using R-dichlorprop habituated PHL in the presence of 10 mg/L bialophos following the standard protocol described above. […]

The subject of test [4] is Untransformed Control corn. Description: Herbicide tolerance of untransformed control corn in the F1 stack test. The test is classed as in vivo, Zea mays. As to conditions: 1120 g ae/ha 2,4-D DMA. An excerpt: (§1) AAD-12 (v1) (pDAB4101) and elite Roundup Ready inbred (BE1146RR) were reciprocally crossed and F1 seed was collected. The seed from two F1 lines were planted and treated with 70 g ae/ha imazethapyr at the V2 stage to eliminate nulls. To the surviving plants, reps were separated and either treated with 1120 g ae/ha 2,4-D DMA+70 g ae/ha imazethapyr (to confirm presence of AHAS gene) or 1120 g ae/ha 2,4-D DMA+1680 g ae/ha glyphosate (to confirm the presence of the Round Up Ready gene) in a track sprayer calibrated to 187 L/ha. Plants were graded 3 and 16 DAT.

In test [5] the test system is F1 stack of AAD-12 (v1) (pDAB4101) and BE1146RR corn. Briefly: Herbicide tolerance of F1 stack AAD-12 (v1) x BE1146RR corn. To be noted: 1120 g ae/ha 2,4-D DMA. The test is classed as in vivo, Zea mays.
Text: as §1

SMILES strings stand for the structures.

On to `Nc1c(Cl)c(F)nc(OCC(=O)O)c1Cl` [Fluroxypyr], for which the “Relative Herbicide Tolerance” value in test [1] (T0 event 1580[1]-004) is given as “High”; in test [1] (T0 event 1580[1]-005), “Variable”; in test [1] (T0 event 1580[1]-008), “Variable”; in test [1] (T0 event 1580[1]-011) it was “High”; in test [1] (T0 event 1580[1]-015), “High”; in test [1] (T0 event 1580[1]-016) it was “High”. Besides, the “Relative Herbicide Tolerance” value in test [1] (T0 event 1580[1]-017) is reported as “High”; in test [1] (T0 event 1580[1]-018), “Variable”; in test [1] (T0 event 1580[1]-019) it was “Variable”; in test [1] (T0 event 1580[1]-022) it was “Variable”; in test [1] (T0 event 1580[1]-023) it was “Variable”; in test [1] (T0 event 1580[1]-024), “Variable”. Besides, the “Relative Herbicide Tolerance” value in test [1] (T0 event 1580[1]-026) is “Variable”; in test [1] (T0 event 1580[1]-027) it was “Low”; in test [1] (T0 event 1580[1]-029) it was “Variable”; in test [1] (T0 event 1580[1]-030), “High”; in test [1] (T0 event 1580[1]-031) it was “High”; in test [1] (T0 event 1580[1]-032) it was “High”.
Turning to `O=C(O)COc1ccc(Cl)cc1Cl` [2,4-D, 2,4-dichlorophenoxyacetic acid], the “% injury 14 DAT” value in test [2] (T0 corn event 4101(0)003.001), in test [2] (T0 corn event 4101(0)003.003) and in test [2] (T0 corn event 4101(0)005.001) was 0% in each case. The “2,4-D concentration beyond which bulked AAD-12 (v1) callus did not grow” value in test [3] (20, 40, 60, 80, 100, and 120 mg/L 2,4-D tested) is not above 20 mg/L. In addition, the “sub-lethal concentration of 2,4-D (above it lethal to the non-transformed cells)” value in test [3] (LS-BY2C+dichlorprop medium) turned out to be 10 mg/L.
`CNC.O=C(O)COc1ccc(Cl)cc1Cl` [2,4-D DMA]: the figures for the “Average % Injury 16DAT” value in test [4], in test [5] (AAD-12 (v1) pDAB4101(0)003.R003.AF) and in test [5] (AAD-12 (v1) pDAB4101(0)005.R001.AF) were 21%, 0% and 0%, respectively.

Source of the values: US11371055B2, “Herbicide resistance genes” (CORTEVA AGRISCIENCE LLC, priority 2005, dated 2022).
